Experimental data reported in patent publication US7691889B2, “Antimycobacterial compounds” (Lupin Limited, priority 2002, dated 2010).
In brackets after ≈: the same amount, converted by molar mass. Like-named read-outs stand apart in the source and are kept apart here.

Assays:
[1] = system: M. tuberculosis 27294; assay: In vitro agar dilution assay (MIC), reference strain; format: cell-based, Mycobacterium tuberculosis
[2] = system: M. tuberculosis clinical isolates, sensitive; assay: microbe, parasite or virus in culture; format: cell-based, Mycobacterium tuberculosis; settings: for MIC: Mycobacterium tuberculosis
[3] = system: M. fortuitum; assay: In vitro agar dilution assay (MIC), M. fortuitum; format: cell-based; settings: Table II
[4] = system: M. kansai; assay: In vitro agar dilution assay (MIC), M. kansai; format: cell-based; settings: Table II
[5] = Acute toxicity in mice; format: in vivo; settings: P. O.
[6] = system: M. tuberculosis ATCC 27294 infection; assay: Murine model of pulmonary tuberculosis; settings: for Mean Log10 No. of CFU Lung / Mean Log10 No. of CFU Spleen: 5 day/week for 4 weeks, mice; for Mean Log10 No. of reduction Lung / Mean Log10 No. of reduction Spleen: difference from early controls

Row | SMILES | Mean Log10 No. of CFU Lung ([6]; 12.5 mg/kg by gavage) | Mean Log10 No. of CFU Spleen ([6]; 12.5 mg/kg by gavage) | Mean Log10 No. of reduction Lung ([6]; 12.5 mg/kg) | Mean Log10 No. of reduction Spleen ([6]; 12.5 mg/kg) | Mean Log10 No. of CFU Lung ([6]; 25 mg/kg by gavage) | Mean Log10 No. of CFU Spleen ([6]; 25 mg/kg by gavage) | Mean Log10 No. of reduction Lung ([6]; 25 mg/kg) | Mean Log10 No. of reduction Spleen ([6]; 25 mg/kg) | Mean Log10 No. of CFU Lung ([6]; 50 mg/kg by gavage) | Mean Log10 No. of CFU Spleen ([6]; 50 mg/kg by gavage) | Mean Log10 No. of reduction Lung ([6]; 50 mg/kg) | Mean Log10 No. of reduction Spleen ([6]; 50 mg/kg) | other results
1 | O=C(CCC(=O)c1ccc2ccccc2c1)NC[C@H]1CN(c2ccc([N+]3([O-])CCOCC3)c(F)c2)C(=O)O1 [Compound 30, (S)-N-[[3-(3-fluoro-4-morpholinylphenyl)-2-oxo-5-oxazolidinyl]methyl]-4-(4-2-naphthyl)-4-oxobutanamide-N-oxide] | 4.34 | 4.30 | 0.20 | 0.26 | 2.21 | 2.13 | 2.30 | 2.49 | 2.12 | 2.09 | 2.40 | 2.53 | MIC against M. tuberculosis 27294 ([1]; Middlebrook 7H10): 0.5 µg/mL (≈ 0.959 µM); MIC against Clinical isolates Sensitive ([2]; Table I, agar dilution): 0.5 µg/mL (≈ 0.959 µM); MIC M. tuberculosis Sensitive ([2]; Table II): 0.50 µg/mL (≈ 0.959 µM); MIC M. fortuitum [3]: >16.0 µg/mL; MIC M. kansai [4]: 8.0 µg/mL (≈ 15.3 µM); LD0 (acute toxicity) [5]: > 1000 mg/kg
2 | NNC(=O)c1ccncc1 [Isoniazid, reference compound] | 2.95 | 2.94 | 1.57 | 1.68 | 2.11 | 2.11 | 2.41 | 2.51 | 2.03 | 1.92 | 2.49 | 2.70 | MIC ([1]; Mycobacterium tuberculosis, 27294, Middlebrook 7H10, read-out: MIC against M. tuberculosis 27294): 0.25 µg/mL (≈ 1.82 µM); MIC ([2]; read-out: MIC M. tuberculosis Sensitive): 0.25 µg/mL (≈ 1.82 µM); MIC ([2]; read-out: MIC against Clinical isolates Sensitive): 0.12 to 0.25 µg/mL (≈ 0.875 to 1.82 µM); MIC ([3]; Mycolicibacterium fortuitum): > 16 µg/mL; MIC [4]: > 16 µg/mL
